Values joined by “and” are separate entries in the source; they are usually repeats but may differ in a detail not shown here. Identical values can stand only once.
biological target: CYP3A4 (Homo sapiens, UniProt P08684); experiment: biochemical; conditions: not given
Sequence (P08684 whole entry): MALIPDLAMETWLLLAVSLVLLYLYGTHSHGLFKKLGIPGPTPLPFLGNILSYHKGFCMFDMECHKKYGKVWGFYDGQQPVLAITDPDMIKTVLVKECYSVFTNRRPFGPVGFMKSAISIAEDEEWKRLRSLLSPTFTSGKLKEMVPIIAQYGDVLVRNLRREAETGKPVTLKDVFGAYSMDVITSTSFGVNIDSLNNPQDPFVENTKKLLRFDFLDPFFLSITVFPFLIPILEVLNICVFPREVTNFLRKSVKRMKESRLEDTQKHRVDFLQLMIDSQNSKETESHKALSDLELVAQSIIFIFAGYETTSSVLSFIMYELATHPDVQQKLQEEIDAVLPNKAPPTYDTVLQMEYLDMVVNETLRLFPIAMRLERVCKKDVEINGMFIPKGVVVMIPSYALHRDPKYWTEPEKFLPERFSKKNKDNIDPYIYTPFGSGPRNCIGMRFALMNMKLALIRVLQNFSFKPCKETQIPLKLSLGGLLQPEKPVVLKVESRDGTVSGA

Q: For `O=C(CC(F)(F)C(=O)N1N=C(c2c(-c3ccc(Cl)cc3)c3ccccc3[nH]c2=O)CC1c1ccc(Cl)cc1)OCC1CC1` (centres unmarked) [2n], which IC50 is on record?
A: The IC50 was 6.7 ± 1.2 µM.

Q: `CC(C)(C)COC(=O)CC(F)(F)C(=O)N1N=C(c2c(-c3ccc(Cl)cc3)c3ccccc3[nH]c2=O)CC1c1ccc(Cl)cc1` (centres unmarked) [2o] was tested. Which IC50 did it give?
A: Its IC50 is 12 ± 0.04 µM.

Q: For `O=C(O)CC(F)(F)C(=O)N1N=C(c2c(-c3ccc(Cl)cc3)c3ccccc3[nH]c2=O)CC1c1ccc(Cl)cc1` (centres unmarked) [2i], which IC50 is on record?
A: Its IC50 is over 20 µM.

Q: How did the IC50 turn out when `O=C(CC(F)(F)C(=O)N1N=C(c2c(-c3ccc(Cl)cc3)c3ccccc3[nH]c2=O)CC1c1ccc(Cl)cc1)OCc1ccccc1` (centres unmarked) [2p] was run?
A: Its IC50 is over 20 µM.

Q: With `CN(C)C(=O)CC(F)(F)C(=O)N1N=C(c2c(-c3ccc(Cl)cc3)c3ccccc3[nH]c2=O)CC1c1ccc(Cl)cc1` (centres unmarked) [2r] as the molecule, how does the IC50 read?
A: The IC50 was over 20 µM.

biological target: GluN1/GluN2C (Rattus norvegicus, UniProt Q00961); experiment: Two-electrode voltage-clamp recordings, Xenopus laevis oocytes, GluN1/GluN2C; type: cell-based; design: GluN2B (NM_012574.1), GluN2C (NM_012575.3), and GluN2D (NM_022797.2) were provided by; expressed in transfected cells; host or cells: Xenopus laevis oocytes (cRNA injection); conditions: tested at 3 μM; 100 μM glutamate, 30 μM glycine; mean ± SEM
Sequence (Q00961 20-1237, other chains not shown): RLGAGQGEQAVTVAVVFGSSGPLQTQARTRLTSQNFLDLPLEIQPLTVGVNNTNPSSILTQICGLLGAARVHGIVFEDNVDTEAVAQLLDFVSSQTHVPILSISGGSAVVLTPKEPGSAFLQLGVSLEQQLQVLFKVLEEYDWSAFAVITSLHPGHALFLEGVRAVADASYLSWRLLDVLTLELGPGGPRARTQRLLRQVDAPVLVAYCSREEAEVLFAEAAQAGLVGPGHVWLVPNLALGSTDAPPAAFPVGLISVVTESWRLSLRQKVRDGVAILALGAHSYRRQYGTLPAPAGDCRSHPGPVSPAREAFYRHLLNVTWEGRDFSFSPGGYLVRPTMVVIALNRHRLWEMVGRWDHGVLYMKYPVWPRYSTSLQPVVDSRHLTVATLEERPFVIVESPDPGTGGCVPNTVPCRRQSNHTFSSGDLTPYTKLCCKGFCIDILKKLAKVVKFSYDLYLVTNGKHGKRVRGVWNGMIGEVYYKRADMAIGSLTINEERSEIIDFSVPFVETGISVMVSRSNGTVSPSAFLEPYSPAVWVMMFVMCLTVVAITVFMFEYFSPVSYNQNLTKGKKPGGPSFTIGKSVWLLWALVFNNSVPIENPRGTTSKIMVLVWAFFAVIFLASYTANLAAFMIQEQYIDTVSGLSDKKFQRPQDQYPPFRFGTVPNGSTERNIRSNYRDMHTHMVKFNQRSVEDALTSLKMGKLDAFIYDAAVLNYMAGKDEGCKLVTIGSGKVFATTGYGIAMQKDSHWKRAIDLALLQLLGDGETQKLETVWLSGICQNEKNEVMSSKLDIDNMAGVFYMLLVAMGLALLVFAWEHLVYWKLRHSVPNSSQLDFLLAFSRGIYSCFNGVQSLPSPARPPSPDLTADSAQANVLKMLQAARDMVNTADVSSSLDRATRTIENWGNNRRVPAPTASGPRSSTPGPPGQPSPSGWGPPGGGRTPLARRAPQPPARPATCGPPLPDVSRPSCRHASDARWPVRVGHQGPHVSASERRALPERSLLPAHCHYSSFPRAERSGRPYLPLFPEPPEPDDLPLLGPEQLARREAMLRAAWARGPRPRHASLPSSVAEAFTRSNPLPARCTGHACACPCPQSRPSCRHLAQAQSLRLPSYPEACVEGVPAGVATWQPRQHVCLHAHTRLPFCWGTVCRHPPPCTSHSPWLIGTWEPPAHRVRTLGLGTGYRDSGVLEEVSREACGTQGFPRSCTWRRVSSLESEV
Method: (§1) All target compounds were evaluated for NMDAR antagonism using two-electrode voltage-clamp recordings from Xenopus laevis oocytes coexpressing recombinant GluN1 and GluN2A-D subunits (Table 1).[32],[42],[33] All analogues were assessed as either a racemic (2b, 2e–2r) or diastereomeric (2d) mixture to simplify purification and streamline in vitro analysis. […] Moreover, as illustrated by the significant loss of NMDAR activity observed with nitrile 2e, the DQP allosteric site necessitated an H-bond donor/acceptor relationship at the carboxylate position. […] The loss of NMDAR activity observed with the trifluoro analogue 2j (Table S1) reinforced the necessity for an H-bond donor/acceptor relationship to maintain allosteric binding and established that fluorine substitution alone is ineffective. […] A single methyl substitution of the amide in compound 2q improved selectivity against GluN2A and had similar potency as 2a, whereas dual methyl substitution reduced potency (2r). We expect that this is likely due to the ability of the […] of the amide to accept hydrogen bonds while the amide can readily donate a proton.
(§2) Unfertilized Xenopus laevis oocytes were obtained from Ecocyte (Austin, TX), or ovaries were purchased from Xenopus 1 (Dexter, MI) and oocytes prepared as previously described.[42],[47] Two-electrode voltage-clamp recordings were performed on oocytes expressing recombinant rat GluN1/GluN2A, GluN1/GluN2B, GluN1/GluN2C, or GluN1/GluN2D. cDNAs for rat GluN1-1a (referred to as GluN1; NCBI Reference Sequence NM_017010.2), GluN2A (NM_012573.4), GluN2B (NM_012574.1), GluN2C (NM_012575.3), and GluN2D (NM_022797.2) were provided by Dr. S. Heinemann from the Salk Institute, Dr. S. Nakanishi from Kyoto University, and Dr. P. Seeburg from the University of Heidelberg. Oocyte isolation, cRNA synthesis, and cRNA injections were performed as previously described.[32],[33],[47] Briefly, Xenopus laevis oocytes were injected with 5–10 ng of cRNA in RNase-free water with the GluN1:GluN2 ratio ranging from 1:1 to 1:5. Oocytes were incubated at 15–19 °C in Barth’s solution consisting of (in mM) 88 NaCl, 1 KCl, 2.4 NaHCO3, 10 HEPES, 0.82 MgSO4, 0.33 Ca(NO3)2, and 0.41 CaCl2 supplemented with 100 μg/mL gentamycin, 40 μg/mL streptomycin, and 50 μg/mL penicillin. Recordings were performed 2–4 days after injection with extracellular recording solution containing (in mM) 90 NaCl, 1 KCl, 10 HEPES, 0.5 BaCl2, and 0.01 EDTA at pH 7.4 adjusted with NaOH. To prevent a gradual increase in current response over the course of the experiment, some oocytes expressing GluN1/GluN2A were injected with 20–50 nL of 2–50 mM K-BAPTA. Concentration–response curves for test compounds were generated by applying a maximally effective concentration of glutamate (100 μM) and glycine (30 μM), followed by glutamate and glycine with variable concentrations of test compounds up to 30 μM. The test compounds were prepared as 20 mM stock solutions in DMSO and diluted to the final concentration in recording solution. The DMSO content was 0.05–0.5% (v/v). […] Methods for off-target analysis are given in the Supporting Information.
(§3) Confidence intervals were determined for the log(IC50). The time course of relaxation during inhibitor application or deactivation following rapid removal of NMDA or glutamate was fitted by the equation [drawing 5] 2

Q: `O=C(O)CC(F)(F)C(=O)N1N=C(c2c(-c3ccc(Cl)cc3)c3ccccc3[nH]c2=O)CC1c1ccc(Cl)cc1` (centres unmarked) [2i] was tested. Which “I3 μM/Icontrol GluN2C” value did it give?
A: The value was 13 ± 2.5% and 13 ± 2.5 ^b (2,12) %.

same assay, conditions: tested at 3 μM; 100 μM glutamate, 30 μM glycine; mean ± SEM; listed as racemic 2i

Q: How did the “I3 μM/Icontrol GluN2C” value turn out when `O=C(O)CC(F)(F)C(=O)N1N=C(c2c(-c3ccc(Cl)cc3)c3ccccc3[nH]c2=O)CC1c1ccc(Cl)cc1` (centres unmarked) [2i] was run?
A: The value was 13 ± 2.5 (2, 12) %.

same assay, conditions: tested at 10 μM (footnote b); 100 μM glutamate, 30 μM glycine; mean ± SEM

Q: With `CC(C)(C)COC(=O)CC(F)(F)C(=O)N1N=C(c2c(-c3ccc(Cl)cc3)c3ccccc3[nH]c2=O)CC1c1ccc(Cl)cc1` (centres unmarked) [2o] as the molecule, how does the “I / I control GluN2C” value read?
A: Its value is 87 ± 0.8%.

Q: `CN(C)C(=O)CC(F)(F)C(=O)N1N=C(c2c(-c3ccc(Cl)cc3)c3ccccc3[nH]c2=O)CC1c1ccc(Cl)cc1` (centres unmarked) [2r] was tested. Which “I / I control GluN2C” value did it give?
A: The value was 28 ± 2.2 ^b (4,20) %.

biological target: GluN1/GluN2C (Rattus norvegicus, UniProt P35439+Q00961); experiment: as above; type: cell-based; design: GluN2B (NM_012574.1), GluN2C (NM_012575.3), and GluN2D (NM_022797.2) were provided by; expressed in transfected cells; host or cells: Xenopus laevis oocytes (cRNA injection); conditions: 30 μM test compound; 100 μM glutamate, 30 μM glycine; mean ± SEM; read-out: I 30 μM / I control GluN2C
Sequence (Q00961 20-1237, other chains not shown): as above
Method: as §1, §2, §3

Q: For `O=C(CC(F)(F)C(=O)N1N=C(c2c(-c3ccc(Cl)cc3)c3ccccc3[nH]c2=O)CC1c1ccc(Cl)cc1)OCC1CC1` (centres unmarked) [2n], which remaining activity at 30 µM is on record?
A: Its remaining activity at 30 µM is 93 ± 4.2%.

Q: How did the remaining activity at 30 µM turn out when `O=C(CC(F)(F)C(=O)N1N=C(c2c(-c3ccc(Cl)cc3)c3ccccc3[nH]c2=O)CC1c1ccc(Cl)cc1)OCc1ccccc1` (centres unmarked) [2p] was run?
A: The remaining activity at 30 µM was 98 ± 0.95%.

same assay, conditions: 100 μM glutamate, 30 μM glycine; read-out: IC50 GluN2C [95% CI]

Q: Which IC50 does the source give for `O=C(O)CC(F)(F)C(=O)N1N=C(c2c(-c3ccc(Cl)cc3)c3ccccc3[nH]c2=O)CC1c1ccc(Cl)cc1` (centres unmarked) [2i] here?
A: Its IC50 is 0.35 µM.

Q: For `CN(C)C(=O)CC(F)(F)C(=O)N1N=C(c2c(-c3ccc(Cl)cc3)c3ccccc3[nH]c2=O)CC1c1ccc(Cl)cc1` (centres unmarked) [2r], which IC50 is on record?
A: Its IC50 is 4.1 µM.

biological target: T1, GluN1/GluN2A (Rattus norvegicus, UniProt Q00959); experiment: Two-electrode voltage-clamp recordings, Xenopus laevis oocytes, GluN1/GluN2A; type: cell-based; conditions: tested at 3 μM; 100 μM glutamate, 30 μM glycine; mean ± SEM
T1 construct: expressed in transfected cells; host or cells: Xenopus laevis oocytes (cRNA injection)
T1 sequence (Q00959 23-1464, other chains not shown): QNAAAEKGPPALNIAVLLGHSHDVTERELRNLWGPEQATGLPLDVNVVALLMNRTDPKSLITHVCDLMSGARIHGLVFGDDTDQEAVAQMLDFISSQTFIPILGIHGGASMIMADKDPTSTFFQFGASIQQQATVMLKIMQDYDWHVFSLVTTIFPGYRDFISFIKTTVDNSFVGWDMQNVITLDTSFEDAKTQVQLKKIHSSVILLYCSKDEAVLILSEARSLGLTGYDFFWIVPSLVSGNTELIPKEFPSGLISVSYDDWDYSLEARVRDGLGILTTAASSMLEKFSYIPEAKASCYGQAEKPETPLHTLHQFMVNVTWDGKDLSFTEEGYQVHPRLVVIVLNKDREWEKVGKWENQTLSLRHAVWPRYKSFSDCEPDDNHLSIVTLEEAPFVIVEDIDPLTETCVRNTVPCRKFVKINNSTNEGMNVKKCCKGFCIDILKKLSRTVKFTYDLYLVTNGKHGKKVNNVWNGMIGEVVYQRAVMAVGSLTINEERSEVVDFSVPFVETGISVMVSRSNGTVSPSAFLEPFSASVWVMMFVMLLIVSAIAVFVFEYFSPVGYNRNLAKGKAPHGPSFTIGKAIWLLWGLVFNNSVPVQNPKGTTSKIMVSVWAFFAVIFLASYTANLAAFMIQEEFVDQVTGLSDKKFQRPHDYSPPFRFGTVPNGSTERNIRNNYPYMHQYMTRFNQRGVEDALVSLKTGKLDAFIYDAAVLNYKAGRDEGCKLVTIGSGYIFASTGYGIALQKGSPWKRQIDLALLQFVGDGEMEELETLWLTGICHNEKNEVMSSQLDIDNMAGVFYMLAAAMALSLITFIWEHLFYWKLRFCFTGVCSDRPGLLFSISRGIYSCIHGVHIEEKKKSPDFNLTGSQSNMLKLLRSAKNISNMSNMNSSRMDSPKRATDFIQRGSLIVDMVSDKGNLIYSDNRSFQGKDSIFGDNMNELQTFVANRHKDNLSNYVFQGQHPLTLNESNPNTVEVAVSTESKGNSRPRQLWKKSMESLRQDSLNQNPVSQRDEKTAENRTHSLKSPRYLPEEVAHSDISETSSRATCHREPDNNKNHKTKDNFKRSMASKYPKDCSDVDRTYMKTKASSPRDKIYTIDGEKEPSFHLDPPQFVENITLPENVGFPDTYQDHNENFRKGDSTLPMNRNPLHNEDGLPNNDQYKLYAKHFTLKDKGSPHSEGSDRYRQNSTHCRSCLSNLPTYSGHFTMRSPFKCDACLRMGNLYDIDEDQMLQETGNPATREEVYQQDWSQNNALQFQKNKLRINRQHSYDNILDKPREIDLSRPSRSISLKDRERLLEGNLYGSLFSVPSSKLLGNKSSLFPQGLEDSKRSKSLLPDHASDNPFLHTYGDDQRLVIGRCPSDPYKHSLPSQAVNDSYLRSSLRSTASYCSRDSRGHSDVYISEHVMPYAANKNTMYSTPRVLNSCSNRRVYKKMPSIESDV
Method: as §1, §2, §3

Q: Which “I3 μM/Icontrol GluN2A” value does the source give for `O=C(O)CC(F)(F)C(=O)N1N=C(c2c(-c3ccc(Cl)cc3)c3ccccc3[nH]c2=O)CC1c1ccc(Cl)cc1` (centres unmarked) [2i] here?
A: Its value is 61 ± 2.4% and 61 ± 2.4 ^b (2,10) %.

same assay, conditions: tested at 3 μM; 100 μM glutamate, 30 μM glycine; mean ± SEM; listed as racemic 2i

Q: `O=C(O)CC(F)(F)C(=O)N1N=C(c2c(-c3ccc(Cl)cc3)c3ccccc3[nH]c2=O)CC1c1ccc(Cl)cc1` (centres unmarked) [2i] was tested. Which “I3 μM/Icontrol GluN2A” value did it give?
A: Its value is 61 ± 2.4 (2, 10) %.

same assay, conditions: tested at 10 μM (footnote b); 100 μM glutamate, 30 μM glycine; mean ± SEM

Q: Which “I / I control GluN2A” value does the source give for `CC(C)(C)COC(=O)CC(F)(F)C(=O)N1N=C(c2c(-c3ccc(Cl)cc3)c3ccccc3[nH]c2=O)CC1c1ccc(Cl)cc1` (centres unmarked) [2o] here?
A: The value was 97 ± 2.2%.

Q: How did the “I / I control GluN2A” value turn out when `CN(C)C(=O)CC(F)(F)C(=O)N1N=C(c2c(-c3ccc(Cl)cc3)c3ccccc3[nH]c2=O)CC1c1ccc(Cl)cc1` (centres unmarked) [2r] was run?
A: The value was 70 ± 3.9 ^b (3,13) %.

biological target: T2, GluN1/GluN2A (Rattus norvegicus, UniProt P35439+Q00959); experiment: as above; type: cell-based; conditions: 30 μM test compound; 100 μM glutamate, 30 μM glycine; mean ± SEM; read-out: I 30 μM / I control GluN2A
T2 construct: expressed in transfected cells; host or cells: Xenopus laevis oocytes (cRNA injection)
T2 sequence (Q00959 23-1464, other chains not shown): as above
Method: as §1, §2, §3

Q: How did the remaining activity at 30 µM turn out when `O=C(CC(F)(F)C(=O)N1N=C(c2c(-c3ccc(Cl)cc3)c3ccccc3[nH]c2=O)CC1c1ccc(Cl)cc1)OCC1CC1` (centres unmarked) [2n] was run?
A: The remaining activity at 30 µM was 100 ± 1.3%.

Q: With `O=C(CC(F)(F)C(=O)N1N=C(c2c(-c3ccc(Cl)cc3)c3ccccc3[nH]c2=O)CC1c1ccc(Cl)cc1)OCc1ccccc1` (centres unmarked) [2p] as the molecule, how does the remaining activity at 30 µM read?
A: The remaining activity at 30 µM was 105 ± 0.72%.

same assay, conditions: 100 μM glutamate, 30 μM glycine; read-out: IC50 GluN2A [95% CI]

Q: With `O=C(O)CC(F)(F)C(=O)N1N=C(c2c(-c3ccc(Cl)cc3)c3ccccc3[nH]c2=O)CC1c1ccc(Cl)cc1` (centres unmarked) [2i] as the molecule, how does the IC50 read?
A: The IC50 was 5.6 µM.
